Measurements from US20250107525A1, “CARBOXYLIC ACID-DERIVED KETO-DIESTERS AND USES THEREOF” (The United States of America, as represented by the …, priority 2023, published 2025).
“Also recorded” adds a separate entry of the source.

Key:
[1] = tested on: monocot bentgrass (Agrostis stolonifera); assay: primary bioassay, bentgrass seeds exposed to 1000 μM solution for 7 days; type: in vivo; conditions: for growth of bentgrass seedlings: compared to negative controls H2O or 10% acetone
Protocol: The phytotoxic activity of compounds belonging to formula (III), (V), or (VII) classes were evaluated in a primary bioassay. The synthetic triketone herbicides mesotrione and sulcotrione were used as positive controls. The seeds of monocot bentgrass (Agrostis stolonifera) and dicot Arabidopsis (Arabidopsis thaliana) were exposed for 7 days to 1000 μM solution of each chemical. […] Chlorosis of treated seedlings is a common symptom of HPPD enzyme inhibition, and the obtained results are an initial confirmation this mode of action for these new compounds. Next, a detailed assessment of phytotoxic activity of potential herbicide candidates was accomplished by measurement a growth of duckweed (Lemna paucicostata) frond surface (Table 1). Mesotrione and sulcotrione were used as positive controls.
(§1) The synthetic triketone herbicides mesotrione and sulcotrione were used as positive controls. For comparative purposes, water as well as 10% acetone in water were used as negative controls. The seeds of monocot bentgrass (Agrostis stolonifera) and dicot Arabidopsis (Arabidopsis thaliana) were exposed for 7 days to 1000 μM solution of each chemical. […] Chlorosis of treated seedlings is a common symptom of a typical HPPD enzyme inhibition, and the obtained results are an initial confirmation this mode of action for these new compounds.
The synthetic triketone herbicides mesotrione and sulcotrione were used as positive controls. For comparative purposes, water as well as 10% acetone in water were used as negative controls. The seeds of monocot bentgrass (Agrostis stolonifera) and dicot Arabidopsis (Arabidopsis thaliana) were exposed for 7 days to 1000 μM solution of each chemical.
as §1, with “The phytotoxic activity of compounds belonging to formula (VII) (compounds (VII-1) and (VII-2)) was evaluated in a primary bioassay. The synthetic” for “The synthetic”

[2] = tested on: duckweed (Lemna paucicostata); assay: secondary bioassay, dose-response curve based on growth rate of duckweed frond surface; type: in vivo; conditions: for IC50: Lemna aequinoctialis, growth rate of duckweed (Lemna paucicostata) frond surface, read-out: IC50 (μM), herbicidal activity in a secondary bioassay; for activity compared with commercial herbicides bentazon, clomazone, glyphosate, glufosinate, asulam, chloropropham and EPTC in the same bioassay: comparison with data of Michel, A., et al. (2004)
Protocol: The phytotoxic activity of compounds belonging to formula (III), (V), or (VII) classes were evaluated in a primary bioassay. […] The seeds of monocot bentgrass (Agrostis stolonifera) and dicot Arabidopsis (Arabidopsis thaliana) were exposed for 7 days to 1000 μM solution of each chemical. […] Next, a detailed assessment of phytotoxic activity of potential herbicide candidates was accomplished by measurement a growth of duckweed (Lemna paucicostata) frond surface (Table 1).
Next, a detailed assessment of the phytotoxic activity of the potential herbicide candidates was done by calculating dose-response curve base on growth rate of duckweed (Lemna paucicostata) frond surface.
Next, a detailed assessment of the phytotoxic activity of the potential herbicide candidates was done by calculating dose-response curves base on growth rate of duckweed (Lemna paucicostata) frond surface.
Next, a detailed assessment of the phytotoxic activity of the potential herbicide candidates was done by calculating dose-response curve based on the growth rate of duckweed (Lemna paucicostata) frond surface.

Compound | chlorosis of bentgrass seedlings [1] | growth of bentgrass seedlings [1] | IC50 [2] | activity compared with commercial herbicides bentazon, clomazone, glyphosate, glufosinate, asulam, chloropropham and EPTC in the same bioassay [2]
CC1(C)OC(=O)C(=C(O)c2ccc(S(C)(=O)=O)cc2Cl)C(=O)O1 [III-1, 5-(2-chloro-4-(methylsulfonyl)benzoyl)-2,2-dimethyl-1,3-dioxane-4,6-dione] | did not develop chlorosis | growth of some of them was reduced |  | 
CC1(C)OC(=O)C(=C(O)c2ccc(C(F)(F)F)cc2[N+](=O)[O-])C(=O)O1 [III-2, 2,2-dimethyl-5-(2-nitro-4-(trifluoromethyl)benzoyl)-1,3-dioxane-4,6-dione] | most of them were chlorotic; also recorded: most of them developed symptoms of chlorosis | significantly impacted growth; also recorded: significantly reduced growth | 1.9 µM | more active
CC1(C)OC(=O)C(=C(O)c2ccc(S(C)(=O)=O)cc2[N+](=O)[O-])C(=O)O1 [III-3, 2,2-dimethyl-5-(4-(methylsulfonyl)-2-nitrobenzoyl)-1,3-dioxane-4,6-dione] | did not develop chlorosis | growth of some of them was reduced |  | 
CC1(C)OC(=O)C(=C(O)CCc2ccccc2)C(=O)O1 [III-4, 2,2-dimethyl-5-(3-phenylpropanoyl)-1,3-dioxane-4,6-dione] |  |  | 13.2 µM | 
O=C1OC2(CCCC2)OC(=O)C1=C(O)CCc1ccccc1 [III-5, 8-(3-phenylpropanoyl)-6, 10-dioxaspiro [4.5] decane-7,9-dione] |  |  | 17.9 µM | 
CCCC1(CCC)OC(=O)C(=C(O)CCc2ccccc2)C(=O)O1 [III-6, 5-(3-phenylpropanoyl)-2,2-dipropyl-1,3-dioxane-4,6-dione] |  |  | 2.6 µM | more active
CC(C)CC(O)=C1C(=O)OC(C)(C)OC1=O [VII-1, 2,2-dimethyl-5-(3-methylbutanoyl)-1,3-dioxane-4,6-dione] |  |  | 1.14 µM | 
CC(C)CC(O)=C1C(=O)OC2(CCCC2)OC1=O [VII-2, 8-(3-methylbutanoyl)-6,10-dioxaspiro [4.5] decane-7,9-dione] |  |  | 3.3 µM | 
